Reference: patent publication US11198713B2, “Agents modulating beta-catenin functions and methods thereof” (FOG PHARMACEUTICALS, INC., priority 2017, dated 2021)

molecular target: T1, full-length beta-catenin (Axin site) (Homo sapiens, UniProt P35222); experiment: Competition fluorescence polarization assay (Axin site probe); type: binding; conditions: competition fluorescence polarization, Table 2; read-out: in vitro FP EC50
T1 construct: 15 nM full-length beta-catenin, 20 nM FITC labeled peptide in buffer
T1 sequence (P35222 1-781): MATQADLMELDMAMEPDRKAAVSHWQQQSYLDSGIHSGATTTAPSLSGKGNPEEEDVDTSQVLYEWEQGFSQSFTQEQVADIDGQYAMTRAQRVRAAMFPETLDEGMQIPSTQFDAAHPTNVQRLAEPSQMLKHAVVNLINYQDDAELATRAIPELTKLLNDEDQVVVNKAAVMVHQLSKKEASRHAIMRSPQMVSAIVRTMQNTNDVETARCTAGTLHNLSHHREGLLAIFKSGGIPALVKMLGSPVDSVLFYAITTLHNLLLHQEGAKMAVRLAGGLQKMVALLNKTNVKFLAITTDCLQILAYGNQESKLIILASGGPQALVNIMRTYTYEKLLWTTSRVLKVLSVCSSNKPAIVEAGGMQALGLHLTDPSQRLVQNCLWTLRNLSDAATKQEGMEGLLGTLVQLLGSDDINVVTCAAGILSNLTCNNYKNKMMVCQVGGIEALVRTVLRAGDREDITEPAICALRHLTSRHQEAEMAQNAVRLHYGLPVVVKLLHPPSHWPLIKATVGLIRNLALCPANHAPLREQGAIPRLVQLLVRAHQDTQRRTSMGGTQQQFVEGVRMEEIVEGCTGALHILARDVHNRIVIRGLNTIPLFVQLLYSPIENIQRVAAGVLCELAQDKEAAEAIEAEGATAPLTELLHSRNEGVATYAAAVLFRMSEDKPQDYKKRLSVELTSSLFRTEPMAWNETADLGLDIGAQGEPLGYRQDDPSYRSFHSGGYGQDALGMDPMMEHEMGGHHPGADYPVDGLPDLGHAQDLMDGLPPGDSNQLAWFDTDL
Outline: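 Competition FP: 15 nM full-length β-catenin pre-incubated 5 min with 20 nM FITC-labelled stapled Axin-site peptide, then titrated peptide added (3-fold series from 5 μM) for 15 min in the dark. Buffer 50 mM Tris pH 8.0, 250 mM NaCl, 2% glycerol, 0.5 mM EDTA; duplicate reads.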

| EC50 | SMILES |
| --- | --- |
| > 5 µM | CC[C@H](C)[C@@H]1NC(=O)[C@@]2(NC(=O)[C@H](CCC(N)=O)NC(=O)[C@@H]3CCCN3C(C)=O)CCN(CC=CCCC[C@](C)(C(=O)N[C@@H](Cc3c[nH]cn3)C(=O)N[C@H](C(=O)N[C@@H](CCCNC(=N)N)C(=O)N[C@@H](CCCNC(=N)N)C(=O)N[C@H](C(=O)N[C@@H](Cc3c[nH]c4ccccc34)C(=O)N[C@@H](CCCNC(=N)N)C(N)=O)C(C)C)C(C)C)NC(=O)[C@H](CC(=O)O)NC(=O)[C@H](CC(C)C)NC1=O)C2 (single isomer, unassigned) [FP0743a, Ac-P-Q-MC-I-L-D-R5-H-V-R-R-V-W-R-NH2] |
| 0.5 to 5 µM | CC[C@H](C)[C@@H]1NC(=O)[C@@]2(NC(=O)[C@H](CCC(N)=O)NC(=O)[C@@H]3CCCN3C(C)=O)CCN(C2)C(=O)OCC=CCCC[C@](C)(C(=O)N[C@@H](Cc2c[nH]cn2)C(=O)N[C@H](C(=O)N[C@@H](CCCNC(=N)N)C(=O)N[C@@H](CCCNC(=N)N)C(=O)N[C@H](C(=O)N[C@@H](Cc2c[nH]c3ccccc23)C(=O)N[C@@H](CCCNC(=N)N)C(N)=O)C(C)C)C(C)C)NC(=O)[C@H](CC(=O)O)NC(=O)[C@H](CC(C)C)NC1=O (single isomer, unassigned) [FP0743c, Ac-P-Q-MC-I-L-D-R5-H-V-R-R-V-W-R-NH2] |
| 0.1 to 0.5 µM | CC[C@H](C)[C@@H]1NC(=O)[C@@]2(NC(=O)[C@H](CCC(N)=O)NC(=O)[C@@H]3CCCN3C(C)=O)CCN(C2)C(=O)OCC=CCCCC[C@](C)(C(=O)N[C@@H](Cc2c[nH]cn2)C(=O)N[C@H](C(=O)N[C@@H](CCCNC(=N)N)C(=O)N[C@@H](CCCNC(=N)N)C(=O)N[C@H](C(=O)N[C@@H](Cc2c[nH]c3ccccc23)C(=O)N[C@@H](CCCNC(=N)N)C(N)=O)C(C)C)C(C)C)NC(=O)[C@H](CC(=O)O)NC(=O)[C@H](CC(C)C)NC1=O (single isomer, unassigned) [FP0745c, Ac-P-Q-MC-I-L-D-R6-H-V-R-R-V-W-R-NH2] |
| > 5 µM | CC[C@H](C)[C@@H]1NC(=O)[C@]2(NC(=O)[C@H](CCC(N)=O)NC(=O)[C@@H]3CCCN3C(C)=O)CCN(CC=CCCC[C@@](C)(C(=O)N[C@@H](Cc3c[nH]cn3)C(=O)N[C@H](C(=O)N[C@@H](CCCNC(=N)N)C(=O)N[C@@H](CCCNC(=N)N)C(=O)N[C@H](C(=O)N[C@@H](Cc3c[nH]c4ccccc34)C(=O)N[C@@H](CCCNC(=N)N)C(N)=O)C(C)C)C(C)C)NC(=O)[C@H](CC(=O)O)NC(=O)[C@H](CC(C)C)NC1=O)C2 (single isomer, unassigned) [FP0751a, Ac-P-Q-MB-I-L-D-S5-H-V-R-R-V-W-R-NH2] |
| 0.5 to 5 µM | CC[C@H](C)[C@@H]1NC(=O)[C@]2(NC(=O)[C@H](CCC(N)=O)NC(=O)[C@@H]3CCCN3C(C)=O)CCN(C2)C(=O)OCC=CCCC[C@@](C)(C(=O)N[C@@H](Cc2c[nH]cn2)C(=O)N[C@H](C(=O)N[C@@H](CCCNC(=N)N)C(=O)N[C@@H](CCCNC(=N)N)C(=O)N[C@H](C(=O)N[C@@H](Cc2c[nH]c3ccccc23)C(=O)N[C@@H](CCCNC(=N)N)C(N)=O)C(C)C)C(C)C)NC(=O)[C@H](CC(=O)O)NC(=O)[C@H](CC(C)C)NC1=O (single isomer, unassigned) [FP0751c, Ac-P-Q-MB-I-L-D-S5-H-V-R-R-V-W-R-NH2] |
| 0.5 to 5 µM | CC[C@H](C)[C@@H]1NC(=O)[C@]2(NC(=O)[C@H](CCC(N)=O)NC(=O)[C@@H]3CCCN3C(C)=O)CCN(C2)C(=O)OCC=CCCCC[C@@](C)(C(=O)N[C@@H](Cc2c[nH]cn2)C(=O)N[C@H](C(=O)N[C@@H](CCCNC(=N)N)C(=O)N[C@@H](CCCNC(=N)N)C(=O)N[C@H](C(=O)N[C@@H](Cc2c[nH]c3ccccc23)C(=O)N[C@@H](CCCNC(=N)N)C(N)=O)C(C)C)C(C)C)NC(=O)[C@H](CC(=O)O)NC(=O)[C@H](CC(C)C)NC1=O (single isomer, unassigned) [FP0752c, Ac-P-Q-MB-I-L-D-S6-H-V-R-R-V-W-R-NH2] |
| > 5 µM | CC[C@H](C)[C@@H]1NC(=O)[C@]2(NC(=O)[C@H](CCC(N)=O)NC(=O)[C@@H]3CCCN3C(C)=O)CCN(CC=CCCCCC[C@@](C)(C(=O)N[C@@H](Cc3c[nH]cn3)C(=O)N[C@H](C(=O)N[C@@H](CCCNC(=N)N)C(=O)N[C@@H](CCCNC(=N)N)C(=O)N[C@H](C(=O)N[C@@H](Cc3c[nH]c4ccccc34)C(=O)N[C@@H](CCCNC(=N)N)C(N)=O)C(C)C)C(C)C)NC(=O)[C@H](CC(=O)O)NC(=O)[C@H](CC(C)C)NC1=O)C2 (single isomer, unassigned) [FP0753a, Ac-P-Q-MB-I-L-D-S7-H-V-R-R-V-W-R-NH2] |
| > 5 µM | CC[C@H](C)[C@@H]1NC(=O)[C@](C)(NC(=O)[C@H](CCC(N)=O)NC(=O)[C@@H]2CCCN2C(C)=O)CCCC=CCN2CC[C@@](C(=O)N[C@@H](Cc3c[nH]cn3)C(=O)N[C@H](C(=O)N[C@@H](CCCNC(=N)N)C(=O)N[C@@H](CCCNC(=N)N)C(=O)N[C@H](C(=O)N[C@@H](Cc3c[nH]c4ccccc34)C(=O)N[C@@H](CCCNC(=N)N)C(N)=O)C(C)C)C(C)C)(C2)NC(=O)[C@H](CC(=O)O)NC(=O)[C@H](CC(C)C)NC1=O (single isomer, unassigned) [FP0758a, Ac-P-Q-R5-I-L-D-MB-H-V-R-R-V-W-R-NH2] |
| 0.5 to 5 µM | CC[C@H](C)[C@@H]1NC(=O)[C@](C)(NC(=O)[C@H](CCC(N)=O)NC(=O)[C@@H]2CCCN2C(C)=O)CCCC=CCOC(=O)N2CC[C@@](C(=O)N[C@@H](Cc3c[nH]cn3)C(=O)N[C@H](C(=O)N[C@@H](CCCNC(=N)N)C(=O)N[C@@H](CCCNC(=N)N)C(=O)N[C@H](C(=O)N[C@@H](Cc3c[nH]c4ccccc34)C(=O)N[C@@H](CCCNC(=N)N)C(N)=O)C(C)C)C(C)C)(C2)NC(=O)[C@H](CC(=O)O)NC(=O)[C@H](CC(C)C)NC1=O (single isomer, unassigned) [FP0758c, Ac-P-Q-R5-I-L-D-MB-H-V-R-R-V-W-R-NH2] |
| 0.1 to 0.5 µM | CC[C@H](C)[C@@H]1NC(=O)[C@@](C)(NC(=O)[C@H](CCC(N)=O)NC(=O)[C@@H]2CCCN2C(C)=O)CCCCC=CCOC(=O)N2CC[C@@](C(=O)N[C@@H](Cc3c[nH]cn3)C(=O)N[C@H](C(=O)N[C@@H](CCCNC(=N)N)C(=O)N[C@@H](CCCNC(=N)N)C(=O)N[C@H](C(=O)N[C@@H](Cc3c[nH]c4ccccc34)C(=O)N[C@@H](CCCNC(=N)N)C(N)=O)C(C)C)C(C)C)(C2)NC(=O)[C@H](CC(=O)O)NC(=O)[C@H](CC(C)C)NC1=O (single isomer, unassigned) [FP0761c, Ac-P-Q-S6-I-L-D-MB-H-V-R-R-V-W-R-NH2] |
| 0.5 to 5 µM | CC[C@H](C)[C@@H]1NC(=O)[C@@](C)(NC(=O)[C@H](CCC(N)=O)NC(=O)[C@@H]2CCCN2C(C)=O)CCCCCC=CCN2CC[C@@](C(=O)N[C@@H](Cc3c[nH]cn3)C(=O)N[C@H](C(=O)N[C@@H](CCCNC(=N)N)C(=O)N[C@@H](CCCNC(=N)N)C(=O)N[C@H](C(=O)N[C@@H](Cc3c[nH]c4ccccc34)C(=O)N[C@@H](CCCNC(=N)N)C(N)=O)C(C)C)C(C)C)(C2)NC(=O)[C@H](CC(=O)O)NC(=O)[C@H](CC(C)C)NC1=O (single isomer, unassigned) [FP0763a, Ac-P-Q-S7-I-L-D-MB-H-V-R-R-V-W-R-NH2] |
| 0.1 to 0.5 µM | CC[C@H](C)[C@@H]1NC(=O)[C@@](C)(NC(=O)[C@H](CCC(N)=O)NC(=O)[C@@H]2CCCN2C(C)=O)CCCCCC=CCOC(=O)N2CC[C@@](C(=O)N[C@@H](Cc3c[nH]cn3)C(=O)N[C@H](C(=O)N[C@@H](CCCNC(=N)N)C(=O)N[C@@H](CCCNC(=N)N)C(=O)N[C@H](C(=O)N[C@@H](Cc3c[nH]c4ccccc34)C(=O)N[C@@H](CCCNC(=N)N)C(N)=O)C(C)C)C(C)C)(C2)NC(=O)[C@H](CC(=O)O)NC(=O)[C@H](CC(C)C)NC1=O (single isomer, unassigned) [FP0763c, Ac-P-Q-S7-I-L-D-MB-H-V-R-R-V-W-R-NH2] |
| 0.5 to 5 µM | CC[C@H](C)[C@@H]1NC(=O)[C@](C)(NC(=O)[C@H](CCC(N)=O)NC(=O)[C@@H]2CCCN2C(C)=O)CCCCC=CCN2CC[C@](C(=O)N[C@@H](Cc3c[nH]cn3)C(=O)N[C@H](C(=O)N[C@@H](CCCNC(=N)N)C(=O)N[C@@H](CCCNC(=N)N)C(=O)N[C@H](C(=O)N[C@@H](Cc3c[nH]c4ccccc34)C(=O)N[C@@H](CCCNC(=N)N)C(N)=O)C(C)C)C(C)C)(C2)NC(=O)[C@H](CC(=O)O)NC(=O)[C@H](CC(C)C)NC1=O (single isomer, unassigned) [FP0767a, Ac-P-Q-R6-I-L-D-MC-H-V-R-R-V-W-R-NH2] |
| 0.1 to 0.5 µM | CC[C@H](C)[C@@H]1NC(=O)[C@](C)(NC(=O)[C@H](CCC(N)=O)NC(=O)[C@@H]2CCCN2C(C)=O)CCCCC=CCOC(=O)N2CC[C@](C(=O)N[C@@H](Cc3c[nH]cn3)C(=O)N[C@H](C(=O)N[C@@H](CCCNC(=N)N)C(=O)N[C@@H](CCCNC(=N)N)C(=O)N[C@H](C(=O)N[C@@H](Cc3c[nH]c4ccccc34)C(=O)N[C@@H](CCCNC(=N)N)C(N)=O)C(C)C)C(C)C)(C2)NC(=O)[C@H](CC(=O)O)NC(=O)[C@H](CC(C)C)NC1=O (single isomer, unassigned) [FP0767c, Ac-P-Q-R6-I-L-D-MC-H-V-R-R-V-W-R-NH2] |
